The values below come from EP4563571A1, “PRMT5 INHIBITORS” (Beijing Earthwise Technology Co., Ltd., priority 2022, dated 2024).

A value given as a limit tells only on which side of the number the result lay.

Series [1] deals with HCT116^MTAP Deletion cells. The series can be described thus: Anti-proliferation assay on cells (Cell-Titer Glo, 10 days). The class given is cell-based. Particulars: HCT116^MTAP Deletion cells, 10 days incubation, CTG readout; read-out: HCT116^MTAP Deletion GI50. A digest of the protocol:
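HCT116^MTAP Deletion cells seeded at 50 cells/well and exposed to 10-point 3-fold compound dilutions in duplicate (0.1% DMSO) for 10 days at 37 °C. Viability read by CellTiter-Glo luminescence; IC50 derived from GI50 curves of concentration versus inhibition.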

The subject of another series is HCT116 cells. The description is as above. The class given is cell-based. Particulars: ratio of GI50 values. As to the method: Assay example 1: Method of anti-proliferation assay on cells
HCT116^MTAP Deletion cells were from Pharmaron (China); HCT116 cells were from ATCC; McCoy's 5A medium was purchased from Invitrogen (USA); penicillin-streptomycin and fetal bovine serum were purchased from Gibco (USA); a 384-well plate was purchased from PerkinElmer (USA); and Cell-Titer Glo reagent was purchased from Promega (USA).
Compound dissolution: All the compounds were dissolved in dimethyl sulfoxide (DMSO) and then stored. The compounds were stored at room temperature in a dry condition for 3 months for short term storage or at -20 °C for long term storage.
Cell culture and passaging
The cells were cultured strictly in accordance with ATCC requirements. The cell culture medium (McCoy's 5A medium + 10% fetal bovine serum + 1% penicillin + streptomycin) was transferred to a 15 mL centrifuge tube and centrifuged at 1000 rpm for 5 min. The supernatant was removed. The cells were resuspended with complete culture medium, inoculated into a culture dish at the required density, and cultured in an incubator at 37 °C, 95% humid air, and 5% carbon dioxide. The culture medium was replenished or the cells were passaged every 2-3 days depending on the cell growth condition.
Cell proliferation activity assay
When the confluency of cells in the culture dish reached about 90%, the cells were washed twice with PBS, and then treated with trypsin to become single cells. The cells were counted, and 40µl of the cells was inoculated into each well of a 384-well plate (50 cells/well). The plate was equilibrated at 37 °C and 5% carbon dioxide for 10 to 15 minutes. The compounds were injected into the 384-well plate using Echo550, and positive control and negative control (0.1% DMSO) were set up. Each compound was subjected to a 3-fold dilution, resulting in 10 concentration gradients, in duplicate, and the content of DMSO was 0.1%. The 384-well plate was incubated in a cell culture incubator for 10 days.
Then, 40 µl of cell proliferation assay reagent (CTG) was added to the 384-well plate, and the plate was shaken to mix well. Then, the 384-well plate was incubated at 37 °C and 5% carbon dioxide in the dark for 30 minutes. The data were read using the Envision multifunctional microplate reader. […] According to the different drug concentrations and their corresponding inhibition rates, the GI50 curve was drawn using GraphPad 8.0 software. The data were analyzed, and the final IC50 value was obtained.
In addition, the compounds of the present disclosure also have selectivity for mutant HCT116 cells. […] The selectivity data of representative compounds are shown in Table 2: Table 2 Selectivity data of representative compounds

Series [2] has as its system SDMA in HCT116^MTAP Deletion. The series can be described thus: In-Cell Western Assay of cellular SDMA. Type of series: cell-based. The following applies: HCT116^MTAP Deletion cells, 96 hours; read-out: SDMA inhibition IC50 (µM) in HCT116^MTAP Deletion. Here is the method: (§1) Compound dissolution: All the compounds were dissolved in dimethyl sulfoxide (DMSO) and then stored. The compounds were stored at -20°C for long term storage.
(§2) 2.3 Cell culture and passaging
The cells were cultured strictly in accordance with ATCC requirements. […] The supernatant was removed. The cells were resuspended with complete culture medium, inoculated into a culture dish at the required density, and cultured in an incubator at 37 °C, 95% humid air, and 5% carbon dioxide. The culture medium was replenished or the cells were passaged every 2-3 days depending on the cell growth condition.
2.4 In-Cell Western Assay of SDMA
When the confluency of cells in the culture dish reached about 90%, the cells were washed twice with PBS, and then digested with trypsin. 100 µl of the cells was inoculated into each well of a 96-well plate (800 cells/well). The plate was incubated overnight in a 37 °C and 5% CO2 incubator. 50 µL of 3x final concentration of a compound was added to the cell culture plate. Each compound was subjected to a 3-fold dilution, resulting in 10 concentration gradients, in duplicate, and the final concentration of DMSO was 0.5%. The plate was incubated in a 37 °C and 5% CO2 incubator for 96 hours.
150µL of 8% paraformaldehyde was added to each well, and the plate was incubated at room temperature for 15 minutes. The supernatant was discarded. The plate was washed with PBS, and 200µL of freshly prepared 1x Permeabilization buffer was added to each well. The plate was incubated at room temperature for 30 minutes. The supernatant was discarded. 200µL of 1x Blocking buffer was added to each well, and the plate was incubated at room temperature for 2 hours. The supernatant was discarded. 50µL of primary antibody (CST, 1x Incubation buffer 1:500 dilution) was added to each well, and the plate was incubated at 4°C overnight. The supernatant was discarded. 250µL of 1x Washing buffer was added to each well, and the plate was washed three times. 50µL of secondary antibody (IRDye 800CW Goat anti-Rabbit IgG and CellTag 700 dye, 1:800 and 1:500 diluted in Incubation buffer) was added to each well, and the plate was incubated at room temperature for 1 hour. The supernatant was discarded. The plate was washed with 1x Washing buffer. Signals were detected using Licor Odyssey CLX. […] According to the different drug concentrations and their corresponding inhibition rates, the IC50 curve was drawn using GraphPad 8.0 software. The data were analyzed, and the final IC50 value was obtained. […] Table 3 Inhibitory activity on cellular SDMA

The next series has as its system SDMA in HCT116. Description: In-Cell Western Assay of cellular SDMA. Particulars: HCT116 cells, 96 hours; read-out: SDMA inhibition IC50 (µM) in HCT116. Type of series: cell-based.
Excerpt: Assay example 2: Method of In-Cell Western Assay of cellular SDMA
HCT116^MTAP Deletion cells were from Horizon; HCT116 cells were from ATCC; RPMI-1640 medium was purchased from ATCC (USA); penicillin-streptomycin was purchased from Gibco (USA); fetal bovine serum was purchased from ExCell; 96-well plate was purchased from Corning (USA); Symmetric Di-Methyl Arginine Motif [sdme-RG] antibody was purchased from CST (USA); IRDye 800CW Goat anti-Rabbit IgG secondary antibody was purchased from LI-COR (USA), and CellTag 700 stain was purchased from LI-COR (USA).
as §1, §2
The cells were cultured strictly in accordance with ATCC requirements. The cell culture medium (RPMI-1640 medium + 10% serum + 1% penicillin + streptomycin) was transferred to a 15 mL centrifuge tube and centrifuged at 1000 rpm for 5 min. The supernatant was removed. […]
150µL of 8% paraformaldehyde was added to each well, and the plate was incubated at room temperature for 15 minutes. […] Signals were detected using Licor Odyssey CLX. […] The data were analyzed, and the final IC50 value was obtained. […]

The nature of series [3]: Brain permeability in CD1 mice after oral gavage administration. Type of series: in vivo, Mouse/CD1/Male. Details: unit not given here. The following applies: 30 mg/kg PO, 0.25-8 hours. Here is the method: Assay example 4 Investigation of brain permeability in CD1 mice after oral gavage administration
4.1.1 Information of administration
4.1.3 Collection and processing of blood sample
4.1.4 Evaluation during the in vivo experiment
4.2 Test sample and preparation
4.2.1 Information of test sample
All the samples were analyzed by LC-MS/MS, and the concentration of the drug to be tested in the samples was determined by the standard curve method.
For the plasma assay results, the pharmacokinetic parameters were calculated using WinNonlin (Phoenix™) or other similar software.

As for `CN(C(=O)C(=O)Nc1cnc(N)c2c1cnn2C)C1COc2cc(C(F)(F)F)ccc21` (single isomer, unassigned) [Example 112-P1], in series [1], the GI50 is less than 10 nM. Besides, the “Selectivity multiple of HCT116^MTAP WT GI50/ HCT116^MTAP Deletion GI50” value (from here on “Selectivity multiple”) in the series on HCT116 cells was found to be 385. Besides, the 50% inhibitory concentration (IC50) in series [2] is less than 0.01 µM; with SDMA in HCT116, 0.1 to 1 µM. Also, in series [3] (brain), the “Brain AUClast/D” value worked out at 428. Moreover, the “CSF AUClast/D” value in series [3] (cerebrospinal fluid) was 6.15. In addition, the “Plasma AUClast/D” value in series [3] (plasma) is 464.
As to `C[C@H](c1ncccn1)N(Cc1ccc(C(F)(F)F)cn1)C(=O)C(=O)Nc1cnc(N)c2c1COC2` [Example 2], the 50% growth inhibitory concentration (GI50) in series [1] fell in the range of 10 to 100 nM. Besides, the IC50 in series [2] was less than 0.01 µM.
In the case of `CN(C(=O)C(=O)Nc1cnc(N)c2c1cnn2C)C1COCc2cc(C3=CCOCC3)ccc21` (centres unmarked) [Example 132-P1], the GI50 in series [1] is less than 10 nM. Also, in the series on HCT116 cells, the “Selectivity multiple” value came out at 266. Also, in series [2], the 50% inhibitory concentration (IC50) is less than 0.01 µM.
Consider `Cc1ncc(-c2ccc3c(c2)COCC3N(C)C(=O)C(=O)Nc2cnc(N)c3c2cnn3C)s1` (centres unmarked) [Example 135], for which the GI50 in series [1] was less than 10 nM. Besides, the “Selectivity multiple” value in the series with HCT116 cells is 285. In addition, the IC50 in series [2] is less than 0.01 µM.
`CN(C(=O)C(=O)Nc1cnc(N)c2c1cnn2C)C1COc2cc(-c3ccnn3C)ccc21` (centres unmarked) [Example 192-P1]: the “Selectivity multiple” value in the series with HCT116 cells worked out at 252. In series [2], the IC50 is less than 0.01 µM.
